Reference: paper PMC8539420, “Discovery of a Potent and Selective JNK3 Inhibitor with Neuroprotective Effect Against Amyloid β-Induced Neurotoxicity in Primary Rat Neurons” (International Journal of Molecular Sciences, 2021)
pIC50: −log10 of the molar value. Read-outs that look alike come from different tables or passages of the source.

Experiments:
JNK1 [1] = target: T1, JNK1 (Homo sapiens, UniProt P45983); assay: Kinase HotSpot assay, JNK1; type: biochemical
T1 construct: purchased Reaction Biology Corp

[2] = system: primary rat cortical neuron; assay: Cell viability (MTT) from Aβ-induced neurotoxicity; type: cell-based; settings: pre-treated 90 min, then 10 μM Aβ42, MTT, normalized to vehicle control (DMSO); compound concentration not given
Source text: (§1) To establish whether the derived selective JNK3 inhibitor actually has the ability to protect neurons from amyloid β-induced neuronal cell death, which is known as the pathogenesis of Alzheimer’s disease, we performed cytotoxicity experiments using Aβ 42, which is known as the most toxic fragment of the amyloid protein. The amyloid-β is known to mainly cause apoptosis during cell death, so it was confirmed whether the derived selective JNK3 inhibitors affect the activation (cleavage) of caspase-3, which are apoptosis-related signaling substances. […] This means that selective JNK3 inhibitors can inhibit apoptosis signaling by amyloid-β in neurons, thereby inhibiting apoptosis. Additionally, we confirmed that JNK activation was induced by amyloid-β in neurons, and the derived selective JNK3 inhibitors could inhibit JNK activation induced by amyloid-β. […] Then, the experiments for JNK3 inhibitors’ effect on the viability of neurons were conducted for five 6-dihydroxy benzimidazoles (35a-35e) by comparing it with previously published resveratrol as a positive control. On the 5th day of rat primary cortical neuron differentiation, each compound was pre-treated for 90 min and then treated with 10 μM Aβ 42 (HIFP-treated) for 24 or 48 h, and cell viability was measured by MTT assay.
In initial experiments, rat hippocampal cells grown in serum-free neurobasal media containing B27 supplements at day 6 were treated with different concentrations of Aβ1–42 or Aβ1–40 for 24 h and then the cell viability was measured by colorimetric MTT assay. Aggregated Aβ1–42 and Aβ1–40 caused up to 40–60% cell death at concentrations ranging from […]. […] Resveratrol was active against various amyloid-related peptides including Aβ1–42, the most neurotoxic amyloid derivative present in the AD brain. […] Primary Rat Cortex Neurons, Sprague Dawley (Gibco, A36512, Fisher Scientific, Göteborg, Sweden), were cultured in Neurobasal™ Plus culture medium (Gibco, A3582901 Fisher Scientific, Göteborg, Sweden), supplemented with B-27™ Supplement (Gibco, A3582801 Fisher Scientific, Göteborg, Sweden) and 0.5 mM GlutaMAX™ Supplement (Gibco, 35050061 Fisher Scientific, Göteborg, Sweden) at 37 °C in a humidified 5% CO2 atmosphere. We plated –2 × 10^5 live cells per well in a poly-D-lysine/laminin coated 24-well plate. For neural differentiation, half of the medium was replaced with fresh complete medium every third day. On day 6, we removed half the volume of media from the culture plate, added an equal amount of complete culture media containing test compounds or vehicle to each well, and incubated them for 90 min at 37 °C and 5% CO2. Immediately prior to use, amyloid β-Protein (1–42) (HFIP-treated) (Bachem, 4090148.0100) was dissolved in 1% NH4OH, further diluted with culture medium, and added into the plates to a final concentration of 10 μM. Cells were incubated for 24 h with vehicle control or test compounds in the presence or absence of Aβ42. Cell viability was measured using the MTT [3-(4, 5-dimethylthiazol-2-yl)-2,5-diphenyltetrazolium bromide] assay. MTT solution was added into each well at a final concentration of 0.5 mg/mL, and cells were incubated at 37 °C for 4 h. The absorbance was detected at 540 nm (reference 650 nm) with a microplate reader. All results were normalized to OD values measured from the vehicle control (DMSO). […]
Primary Rat Cortex Neurons, Sprague Dawley (Gibco, A36512) were cultured in Neurobasal™ Plus culture medium (Gibco, A3582901), supplemented with B-27™ Supplement (Gibco, A3582801) and 0.5mM GlutaMAX™ Supplement (Gibco, 35050061) at 37 °C in a humidified 5% CO2 atmosphere. Plate ~2 × 10^5 live cells per well in a poly-D-lysine/laminin coated 24-well plate. For neural differentiation, half of the medium was replaced with fresh complete medium every third day. On day 6, remove half the volume of media from the culture plate and add an equal amount of complete culture media […]

JNK2 = target: T2, JNK2 (Homo sapiens, UniProt P45984); assay: Kinase HotSpot assay, JNK2; type: biochemical
T2 construct: purchased Reaction Biology Corp

JNK3(h) = target: T3, JNK3(h) (Homo sapiens, UniProt P53779); assay: Kinase HotSpot radiometric assay, JNK3; type: biochemical; settings: ATP 10 μM, substrate ATF2 5 μM; read-out: JNK3 inhibitory activity IC50
T3 construct: purchased Reaction Biology Corp

caspase-3 = assay: Western blot of amyloid-β-induced caspase-3 activation (cleavage) in neurons; type: cell-based, rat; settings: pre-treated 90 minutes, 10 μM amyloid-β1-42 24 hours
Source text: as §1, with “assay. […]” for “assay.”

c-jun = assay: Amyloid-β-induced JNK activation (c-jun phosphorylation) in neurons; type: cell-based; settings: rat primary cortical neurons
Source text: as §1, with “assay. […]” for “assay.”

JNK1 [3] = target: T1, JNK1; settings: previous hit, Figure 2; cited from earlier work
JNK3 = settings: previous hit and lead, Figure 2; cited from earlier work

T1 sequence (P45983 whole entry): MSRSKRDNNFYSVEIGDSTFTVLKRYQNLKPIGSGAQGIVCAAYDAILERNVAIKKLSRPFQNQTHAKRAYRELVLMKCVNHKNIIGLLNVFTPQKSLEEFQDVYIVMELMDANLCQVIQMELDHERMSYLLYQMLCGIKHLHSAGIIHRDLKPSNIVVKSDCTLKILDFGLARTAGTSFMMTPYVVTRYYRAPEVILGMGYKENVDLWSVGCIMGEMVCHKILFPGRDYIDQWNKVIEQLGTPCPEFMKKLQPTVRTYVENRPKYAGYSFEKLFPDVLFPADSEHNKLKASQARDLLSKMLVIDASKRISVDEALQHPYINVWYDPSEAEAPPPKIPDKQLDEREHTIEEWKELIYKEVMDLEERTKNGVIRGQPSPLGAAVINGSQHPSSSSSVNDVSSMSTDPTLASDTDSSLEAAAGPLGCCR
T3 sequence (P53779 whole entry): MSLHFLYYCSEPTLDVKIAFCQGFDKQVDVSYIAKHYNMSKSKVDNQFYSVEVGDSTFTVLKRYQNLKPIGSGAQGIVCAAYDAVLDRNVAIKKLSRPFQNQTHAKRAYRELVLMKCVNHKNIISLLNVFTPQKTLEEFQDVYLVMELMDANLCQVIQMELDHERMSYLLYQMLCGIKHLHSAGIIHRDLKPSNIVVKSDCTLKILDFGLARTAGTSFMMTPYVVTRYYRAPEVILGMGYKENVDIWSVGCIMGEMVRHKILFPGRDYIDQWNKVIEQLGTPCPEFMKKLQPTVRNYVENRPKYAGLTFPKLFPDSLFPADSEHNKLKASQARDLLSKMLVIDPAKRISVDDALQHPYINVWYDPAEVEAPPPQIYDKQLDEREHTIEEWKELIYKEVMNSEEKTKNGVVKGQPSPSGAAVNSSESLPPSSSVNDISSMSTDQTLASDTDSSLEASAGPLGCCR
T2 sequence (P45984 whole entry): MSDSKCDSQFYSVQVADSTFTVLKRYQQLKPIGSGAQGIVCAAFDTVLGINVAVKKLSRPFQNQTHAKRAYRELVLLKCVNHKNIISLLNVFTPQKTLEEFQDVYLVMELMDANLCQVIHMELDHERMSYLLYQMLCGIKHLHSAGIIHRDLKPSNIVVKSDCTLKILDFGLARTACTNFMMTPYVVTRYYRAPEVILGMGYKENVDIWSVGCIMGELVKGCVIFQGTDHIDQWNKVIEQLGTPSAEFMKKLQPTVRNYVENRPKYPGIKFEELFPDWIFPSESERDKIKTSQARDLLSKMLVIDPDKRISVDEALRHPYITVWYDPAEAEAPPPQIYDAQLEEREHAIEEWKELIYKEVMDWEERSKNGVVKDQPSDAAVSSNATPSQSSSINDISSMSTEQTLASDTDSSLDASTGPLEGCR

SMILES | pIC50 (JNK1 [1]) | Cell viability, Mean [2] | pIC50 (JNK2) | pIC50 (JNK3(h)) | activation (cleavage) of caspase-3 by amyloid-β (caspase-3) | phosphorylation of c-jun induced by amyloid-β (c-jun) | pIC50 (JNK1 [3]) | pIC50 (JNK3)
O=C(C1CC1)N1CCC[C@H](Nc2nccc(-n3c(-c4ccc5ccccc5c4)nc4cc(O)c(O)cc43)n2)C1 [35a] | 5.61 | 88.9 ± 3.8% | 6.58 | 7.70 | inhibited the activation of caspase-3 | inhibit phosphorylation of c-jun | – | –
Oc1cccc(-c2nc3ccccc3n2-c2ccnc(N[C@@H]3CCCNC3)c2)c1 [Hit] | – | – | – | – | – | – | < 5.00 | 5.73
